Assays:
logP (HCOOH) = assay type: physicochemical
From the text: Table 2 (physicochemical characterization of selected synthesis examples)

Setaria viridis [1] = assay: Pre-emergence herbicidal effect; assay type: in vivo; conditions: scored visually after 3 weeks
In short: (§1)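 Visual damage score in % after 3 weeks in the greenhouse, relative to untreated controls (0% like control, 100% plants dead). Compounds were sprayed pre-emergence onto covering soil over seeds sown in sandy loam, as WP or EC in water at 600 to 800 L/ha plus 0.2% wetting agent.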

Stellaria media [2] = assay: Pre-emergence herbicidal effect; assay type: in vivo; conditions: scored visually after 3 weeks
In short: as §1

Matricaria inodora [3] = assay: Pre-emergence herbicidal effect; assay type: in vivo; conditions: scored visually after 3 weeks
In short: as §1

Amaranthus retroflexus [4] = assay: Pre-emergence herbicidal effect; assay type: in vivo; conditions: scored visually after 3 weeks
In short: as §1

Viola tricolor [5] = assay: Pre-emergence herbicidal effect; assay type: in vivo; conditions: scored visually after 3 weeks
In short: as §1

Polygonum convolvulus [6] = assay: Pre-emergence herbicidal effect; assay type: in vivo; conditions: Dosage 320 g/ha, scored visually after 3 weeks
In short: as §1

Veronica persica [7] = assay: Pre-emergence herbicidal effect; assay type: in vivo; conditions: scored visually after 3 weeks
In short: as §1

Abutilon theophrasti [8] = assay: Pre-emergence herbicidal effect; assay type: in vivo; conditions: Dosage 320 g/ha, scored visually after 3 weeks
In short: as §1

Echinochloa crus-galli [9] = assay: Pre-emergence herbicidal effect; assay type: in vivo; conditions: scored visually after 3 weeks
In short: as §1

Ipomoea purpurea = assay: Post-emergence herbicidal effect; assay type: in vivo; conditions: 320 g/ha, assessed visually after about 3 weeks vs untreated controls
In short: (§2)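 Greenhouse weeds grown in sandy loam were sprayed at the one-leaf stage, 2–3 weeks after sowing, with WP or EC formulations in 600–800 L/ha water plus 0.2% wetting agent. Damage was scored visually after about 3 weeks as percent activity relative to untreated controls, where 100% means the plants died.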

Stellaria media [10] = assay: Post-emergence herbicidal effect; assay type: in vivo; conditions: assessed visually after about 3 weeks vs untreated controls
In short: as §2

Amaranthus retroflexus [11] = assay: Post-emergence herbicidal effect; assay type: in vivo; conditions: assessed visually after about 3 weeks vs untreated controls
In short: as §2

Viola tricolor [12] = assay: Post-emergence herbicidal effect; assay type: in vivo; conditions: assessed visually after about 3 weeks vs untreated controls
In short: as §2

Veronica persica [13] = assay: Post-emergence herbicidal effect; assay type: in vivo; conditions: assessed visually after about 3 weeks vs untreated controls
In short: as §2

Echinochloa crus-galli [14] = assay: Post-emergence herbicidal effect; assay type: in vivo; conditions: assessed visually after about 3 weeks vs untreated controls
In short: as §2

Setaria viridis [15] = assay: Post-emergence herbicidal effect; assay type: in vivo; conditions: 320 g/ha, assessed visually after about 3 weeks vs untreated controls
In short: as §2

Polygonum convolvulus [16] = assay: Post-emergence herbicidal effect; assay type: in vivo; conditions: assessed visually after about 3 weeks vs untreated controls
In short: as §2

Lolium multiflorum [17] = assay: Pre-emergence herbicidal effect; assay type: in vivo; conditions: Dosage 320 g/ha, scored visually after 3 weeks
In short: as §1

Alopecurus myosuroides = assay: Pre-emergence herbicidal effect; assay type: in vivo; conditions: Dosage 320 g/ha, scored visually after 3 weeks
In short: as §1

Lolium multiflorum [18] = assay: Post-emergence herbicidal effect; assay type: in vivo; conditions: 320 g/ha, assessed visually after about 3 weeks vs untreated controls
In short: as §2

Matricaria inodora [19] = assay: Post-emergence herbicidal effect; assay type: in vivo; conditions: assessed visually after about 3 weeks vs untreated controls
In short: as §2

Abutilon theophrasti [20] = assay: Post-emergence herbicidal effect; assay type: in vivo; conditions: assessed visually after about 3 weeks vs untreated controls
In short: as §2

Compound	logP (HCOOH) (logP (HCOOH))	SETVI pre-emergence efficacy (herbicidal activity) (Setaria viridis [1]; Dosage 320 g/ha) [%]	STEME pre-emergence efficacy (herbicidal activity) (Stellaria media [2]; Dosage 80 g/ha) [%]	STEME pre-emergence efficacy (herbicidal activity) (Stellaria media [2]; Dosage 320 g/ha) [%]	MATIN pre-emergence efficacy (herbicidal activity) (Matricaria inodora [3]; Dosage 80 g/ha) [%]	MATIN pre-emergence efficacy (herbicidal activity) (Matricaria inodora [3]; Dosage 320 g/ha) [%]	AMARE pre-emergence efficacy (herbicidal activity) (Amaranthus retroflexus [4]; Dosage 80 g/ha) [%]	AMARE pre-emergence efficacy (herbicidal activity) (Amaranthus retroflexus [4]; Dosage 320 g/ha) [%]	VIOTR pre-emergence efficacy (herbicidal activity) (Viola tricolor [5]; Dosage 80 g/ha) [%]	VIOTR pre-emergence efficacy (herbicidal activity) (Viola tricolor [5]; Dosage 320 g/ha) [%]	POLCO pre-emergence efficacy (herbicidal activity) (Polygonum convolvulus [6]) [%]	VERPE pre-emergence efficacy (herbicidal activity) (Veronica persica [7]; Dosage 80 g/ha) [%]	VERPE pre-emergence efficacy (herbicidal activity) (Veronica persica [7]; Dosage 320 g/ha) [%]	ECHCG pre-emergence efficacy (herbicidal activity) (Echinochloa crus-galli [9]; Dosage 320 g/ha) [%]	post-emergence efficacy STEME (Stellaria media [10]; 80 g/ha) [%]	post-emergence efficacy STEME (Stellaria media [10]; 320 g/ha) [%]	post-emergence efficacy AMARE (Amaranthus retroflexus [11]; 320 g/ha) [%]	post-emergence efficacy VIOTR (Viola tricolor [12]; 80 g/ha) [%]	post-emergence efficacy VIOTR (Viola tricolor [12]; 320 g/ha) [%]	post-emergence efficacy VERPE (Veronica persica [13]; 80 g/ha) [%]	further results
CS(=O)(=O)c1cnc(NC2CCCc3sc(Cl)cc32)nc1N (racemic) [compound 42]	oily; logP (HCOOH): 2.33; 1H NMR (CDCl3, 400 MHZ, δ in ppm): 1.80 (m, 1H, 1H of	100	100	100	100	100	100	100	100	100	80	100	100	100	90	100	90	90	100	90	SETVI pre-emergence efficacy (herbicidal activity) (Setaria viridis [1]; Dosage 80 g/ha): 100%; ABUTH pre-emergence efficacy (herbicidal activity) (Abutilon theophrasti [8]): 100%; ECHCG pre-emergence efficacy (herbicidal activity) (Echinochloa crus-galli [9]; Dosage 80 g/ha): 100%; post-emergence efficacy PHBPU (Ipomoea purpurea): 80%; post-emergence efficacy VERPE (Veronica persica [13]; 320 g/ha): 100%; post-emergence efficacy ECHCG (Echinochloa crus-galli [14]; 320 g/ha): 100%
CS(=O)(=O)c1cnc(NC2CCCc3cc(Cl)sc32)nc1N (racemic) [compound 53]	solid; logP (HCOOH): 2.41; 1H NMR (CDCl3, 400 MHZ, δ in ppm): 1.75-2.00 (m,	100	80	100	100	100	100	100	100	100	90	100	100	100	100	100	100	90	100	90	ECHCG pre-emergence efficacy (herbicidal activity) (Echinochloa crus-galli [9]; Dosage 80 g/ha): 100%; post-emergence efficacy PHBPU (Ipomoea purpurea): 90%; post-emergence efficacy SETVI (Setaria viridis [15]): 100%; post-emergence efficacy AMARE (Amaranthus retroflexus [11]; 80 g/ha): 90%; post-emergence efficacy POLCO (Polygonum convolvulus [16]; 80 g/ha): 80%; post-emergence efficacy POLCO (Polygonum convolvulus [16]; 320 g/ha): 90%; post-emergence efficacy VERPE (Veronica persica [13]; 320 g/ha): 90%; post-emergence efficacy ECHCG (Echinochloa crus-galli [14]; 80 g/ha): 80%; post-emergence efficacy ECHCG (Echinochloa crus-galli [14]; 320 g/ha): 90%
Cc1cc2c(o1)CCCC2Nc1ncc(S(C)(=O)=O)c(N)n1 (racemic) [compound 62]	oily; logP (HCOOH): 1.78; 1H NMR (CDCl3, 400 MHZ, δ in ppm): 1.70-2.00 (m, 4H,	80	90	100	80	100		100	90	100			90	80		90	90		100		LOLMU pre-emergence efficacy (herbicidal activity) (Lolium multiflorum [17]): 50%; ALOMY pre-emergence efficacy (herbicidal activity) (Alopecurus myosuroides): 60%; ABUTH pre-emergence efficacy (herbicidal activity) (Abutilon theophrasti [8]): 90%; post-emergence efficacy LOLMU (Lolium multiflorum [18]): 80%; post-emergence efficacy AMARE (Amaranthus retroflexus [11]; 80 g/ha): 80%; post-emergence efficacy ECHCG (Echinochloa crus-galli [14]; 320 g/ha): 40%
CNC(=O)c1cnc(NC2CCCc3sc(C)cc32)nc1N (racemic) [compound 266]	logP (HCOOH): 1.17; 1H NMR (CDCl3, 400 MHZ, δ in ppm): 1.90 (m, 3H, 3H of	100	100	100		100	100	100		100		100	100	100	80	100	100	80	90	90	SETVI pre-emergence efficacy (herbicidal activity) (Setaria viridis [1]; Dosage 80 g/ha): 100%; LOLMU pre-emergence efficacy (herbicidal activity) (Lolium multiflorum [17]): 60%; post-emergence efficacy SETVI (Setaria viridis [15]): 60%; post-emergence efficacy MATIN (Matricaria inodora [19]; 80 g/ha): 60%; post-emergence efficacy MATIN (Matricaria inodora [19]; 320 g/ha): 60%; post-emergence efficacy AMARE (Amaranthus retroflexus [11]; 80 g/ha): 90%; post-emergence efficacy VERPE (Veronica persica [13]; 320 g/ha): 90%; post-emergence efficacy ABUTH (Abutilon theophrasti [20]; 80 g/ha): 80%; post-emergence efficacy ABUTH (Abutilon theophrasti [20]; 320 g/ha): 80%
CS(=O)(=O)c1cnc(NC2CCc3ccsc32)nc1N (stereo not shown) [compound 33, N2-(5,6-Dihydro-4H-cyclopenta[b]thiophen-6-yl)-5-methylsulfonylpyrimidine-2,4-diamine]			100	100	100	100	100	100	100	100	100	80	100	100				80	90		chromatographic logP (logP (HCOOH); HCOOH (formic acid)): 1.57; LOLMU pre-emergence efficacy (herbicidal activity) (Lolium multiflorum [17]): 100%; post-emergence efficacy MATIN (Matricaria inodora [19]; 320 g/ha): 90%

From patent US10251395B2, “Substituted furano-/thienocycloalkylamino-2-pyrimidine derivatives and use thereof for controlling undesired plant growth” (Bayer CropScience Aktiengesellschaft, priority 2015, dated 2019)
